This assay concerns the target human α2δ-1 subunit of Cav2.2 calcium channel (Homo sapiens (Human), UniProt P54289). The experiment in a line: Binding assay to human α2δ-1 subunit of Cav2.2 calcium channel ([3H]-Gabapentin). Particulars: binding to α2δ-1, [3H]-Gabapentin; read-out: Ki (nM) α2δ-1. A digest of the protocol:
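Radioactivity on dried GF/C filters quantified by scintillation after filtration and three cold Tris-HCl (pH 7.4) washes. Incubation ran 60 min at 27° C with [3H]-gabapentin; 10 μM pregabalin gave nonspecific binding.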

For orientation: Ki means the equilibrium dissociation constant of an inhibitor or competing ligand from its target.

Chain of human α2δ-1 subunit of Cav2.2 calcium channel (P54289 25-1103): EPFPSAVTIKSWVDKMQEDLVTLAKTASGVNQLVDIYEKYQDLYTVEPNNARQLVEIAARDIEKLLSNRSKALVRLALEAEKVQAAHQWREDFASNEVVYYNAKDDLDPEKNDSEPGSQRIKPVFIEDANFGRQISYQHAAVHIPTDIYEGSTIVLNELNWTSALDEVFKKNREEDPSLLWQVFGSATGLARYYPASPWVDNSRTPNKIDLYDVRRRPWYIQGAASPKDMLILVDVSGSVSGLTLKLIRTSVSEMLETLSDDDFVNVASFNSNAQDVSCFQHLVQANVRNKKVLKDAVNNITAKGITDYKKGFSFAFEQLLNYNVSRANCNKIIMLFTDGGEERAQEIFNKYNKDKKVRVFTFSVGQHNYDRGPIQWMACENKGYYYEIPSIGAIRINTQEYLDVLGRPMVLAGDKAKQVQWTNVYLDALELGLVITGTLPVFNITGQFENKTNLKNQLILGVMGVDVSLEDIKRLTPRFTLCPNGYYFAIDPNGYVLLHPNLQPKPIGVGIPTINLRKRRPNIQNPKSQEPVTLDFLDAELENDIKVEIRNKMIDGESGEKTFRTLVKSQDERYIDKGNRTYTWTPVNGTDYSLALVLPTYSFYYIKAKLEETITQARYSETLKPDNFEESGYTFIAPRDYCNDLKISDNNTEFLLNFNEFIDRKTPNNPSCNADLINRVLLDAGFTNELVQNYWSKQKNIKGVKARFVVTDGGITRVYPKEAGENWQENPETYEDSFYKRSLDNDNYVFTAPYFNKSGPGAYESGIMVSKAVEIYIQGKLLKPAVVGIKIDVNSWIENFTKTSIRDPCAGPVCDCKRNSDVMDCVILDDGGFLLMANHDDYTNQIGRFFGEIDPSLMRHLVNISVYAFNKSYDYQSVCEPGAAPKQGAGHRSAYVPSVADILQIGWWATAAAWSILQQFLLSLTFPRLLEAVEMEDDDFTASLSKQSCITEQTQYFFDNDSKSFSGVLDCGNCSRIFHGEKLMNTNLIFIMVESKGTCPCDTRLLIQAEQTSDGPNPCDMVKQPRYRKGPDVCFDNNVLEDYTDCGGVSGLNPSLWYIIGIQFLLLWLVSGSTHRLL

Take `CNCCC(Oc1ccccc1CN1CCN(C)c2ncncc2C1=O)c1ccccc1` (centres unmarked) [Example 431, 9-methyl-6-(2-(3-(methylamino)-1-phenylpropoxy)benzyl)-6,7,8,9-tetrahydro-5H-pyrimido[4,5-e][1,4]diazepin-5-one]: the inhibition constant Ki was > 3000 nM. The result for `CCNc1ncc2c(n1)N(C)CCN(Cc1ccc(CN(C)C(=O)OC(C)(C)C)cc1)C2=O` [Example 137, tert-butyl (4-((2-(ethylamino)-9-methyl-5-oxo-5,7,8,9-tetrahydro-6H-pyrimido[4,5-e][1,4]diazepin-6-yl)methyl)benzyl) (methyl)carbamate] reads > 3000 nM; that for `CNCC(Oc1cccc(N2CCN(C)c3nc(SC)ncc3C2=O)c1)c1ccccc1` (centres unmarked) [Example 155, 9-methyl-6-(3-(2-(methylamino)-1-phenylethoxy)phenyl)-2-(methylthio)-6,7,8,9-tetrahydro-5H-pyrimido[4,5-e][1,4]diazepin-5-one], > 3000 nM. The figure for `CCNc1ncc2c(n1)N(C)CCN(c1cccc(-n3cc(CN4CCC5(CC4)NCCc4ccccc45)nn3)c1)C2=O` [Example 283, 6-(3-(4-((3,4-dihydro-2H-spiro[isoquinoline-1,4′-piperidin]-1′-yl)methyl)-1H-1,2,3-triazol-1-yl)phenyl)-2-(ethylamino)-9-methyl-6,7,8,9-tetrahydro-5H-pyrimido[4,5-e] [1,4]diazepin-5-one] is 100 to 500 nM. Turning to `CCNc1ncc2c(n1)N(C)CCN(c1cccc(COC3(c4ccccc4)CCN(C)CC3)c1)C2=O` [Example 272, 2-(ethylamino)-9-methyl-6-(3-(((1-methyl-4-phenylpiperidin-4-yl)oxy)methyl)phenyl)-6,7,8,9-tetrahydro-5H-pyrimido[4,5-e][1,4]diazepin-5-one], the Ki lay within 500 to 3000 nM.

In the case of `CCNc1ncc2c(n1)N(C)CCN(c1cccc(-n3cc(CNCCOCCO)nn3)c1)C2=O` [Example 290, 2-(ethylamino)-6-(3-(4-(((2-(2-hydroxyethoxy)ethyl)amino)methyl)-1H-1,2,3-triazol-1-yl)phenyl)-9-methyl-6,7,8,9-tetrahydro-5H-pyrimido[4,5-e] [1,4]diazepin-5-one], the Ki fell in the range of 100 to 500 nM. As for `Cc1nnc(-c2cccc(N3CCN(C)c4nc(N(C)Cc5ccccn5)ncc4C3=O)c2)o1` [Example 106, 9-methyl-2-(methyl (pyridin-2-ylmethyl)amino)-6-(3-(5-methyl-1,3,4-oxadiazol-2-yl)phenyl)-6,7,8,9-tetrahydro-5H-pyrimido[4,5-e][1,4]diazepin-5-one], the Ki is > 3000 nM. Turning to `CSc1ncc2c(n1)N(C)CCN(c1ccc(OC(CN(C)C(=O)OC(C)(C)C)c3ccccc3)cc1)C2=O` (centres unmarked) [Example 8, tert-butyl methyl(2-(4-(9-methyl-2-(methylthio)-5-oxo-5,7,8,9-tetrahydro-6H-pyrimido[4,5-e][1,4]diazepin-6-yl)phenoxy)-2-phenylethyl) carbamate], the Ki is > 3000 nM. Take `CCNc1ncc2c(n1)N(C)CCN(c1cccc(OCCCN(C)CCc3ccccc3)c1)C2=O` [Example 258, 2-(ethylamino)-9-methyl-6-(3-(3-(methyl(phenethyl)amino)propoxy)phenyl)-6,7,8,9-tetrahydro-5H-pyrimido[4,5-e][1,4]diazepin-5-one]: the Ki was in the range of 500 to 3000 nM. The result for `CSc1ncc2c(n1)N(C)CCN(c1cccc(-c3nnc(C)o3)c1)C2=O` [Example 29, 9-methyl-6-(3-(5-methyl-1,3,4-oxadiazol-2-yl)phenyl)-2-(methylthio)-6,7,8,9-tetrahydro-5H-pyrimido[4,5-e][1,4]diazepin-5-one] reads > 3000 nM.

For `CCNc1ncc2c(n1)N(C)CCN(c1cccc(OC(CN(C)CCc3ccccc3)C(C)C)c1)C2=O` (centres unmarked) [Example 268, 2-(ethylamino)-9-methyl-6-(3-((3-methyl-1-(methyl(phenethyl)amino)butan-2-yl)oxy)phenyl)-6,7,8,9-tetrahydro-5H-pyrimido[4,5-e][1,4]diazepin-5-one], the inhibitory constant (Ki) was 500 to 3000 nM.

The values are drawn from patent publication US10590140B2, “Tetrahydropyrimidodiazepine and dihydropyridodiazepine compounds for treating pain and pain related conditions” (ESTEVE PHARMACEUTICALS, S.A., priority 2016, dated 2020).
